According to US20230355584A1, “COMPOSITIONS AND METHODS FOR THE TREATMENT OF LIPID-RELATED DISORDERS” (Raziel Therapeutics Ltd., priority 2020, published 2023):

What was measured:
Type in all cases: in vivo
submental fat [1] = experiment: Phase 2a study: Subject Face-Q Questionnaire (subject satisfaction); settings: human subjects, Day 84 vs. baseline
Method: 28 patients with submental skin fold thickness greater than 1.5 cm as measured with calipers were divided into two cohorts, Cohort 1 (12 patients) and Cohort 2 (16 subjects). In Cohort 1, 8 subjects were injected with a 50 mg per mL solution of 5-(3,6-dibromo-9H-carbazol-9-yl)-N,N,N-trimethylpentan-1-aminium chloride (Compound 1A) in a vehicle comprising water, propylene glycol, and a surfactant, and 4 patients were injected with a placebo solution comprising vehicle only. […] Dosing is determined by cohort, as shown in Table 6 below: The maximum compound dose was 120 mg per patient (a total of 48 injections at 2.5 mg per injection) for Cohort 1 and 240 mg per patient (a total of 48 injections at 5 mg per injection) for Cohort 2. […] Cohort 2 subjects began treatment after Cohort 1 was evaluated for safety on day 28 post-injection. Subjects were also evaluated by a Face-Q Questionnaire, at baseline visit prior to injection and at posttreatment follow up visits on Days 28, 56, and 84. […] Submental fat volume was determined via magnetic resonance imaging (MRI) prior to injection and on day 84 post-injection. Treatment efficacy was evaluated via the Physician’s Global Assessment (PGS) questionnaire on days 28, 56, and 84 after injection, as described above. […]

submental fat [2] = experiment: Phase 2a study: Physician Impression scale (physician's global assessment of submental fat); settings: human, 18 treated subjects (low and high dose), Day 84 vs baseline
Method: 28 patients with submental skin fold thickness greater than 1.5 cm as measured with calipers were divided into two cohorts, Cohort 1 (12 patients) and Cohort 2 (16 subjects). In Cohort 1, 8 subjects were injected with a 50 mg per mL solution of 5-(3,6-dibromo-9H-carbazol-9-yl)-N,N,N-trimethylpentan-1-aminium chloride (Compound 1A) in a vehicle comprising water, propylene glycol, and a surfactant, and 4 patients were injected with a placebo solution comprising vehicle only. […] Dosing is determined by cohort, as shown in Table 6 below: The maximum compound dose was 120 mg per patient (a total of 48 injections at 2.5 mg per injection) for Cohort 1 and 240 mg per patient (a total of 48 injections at 5 mg per injection) for Cohort 2. […] Cohort 2 subjects began treatment after Cohort 1 was evaluated for safety on day 28 post-injection. […] Submental fat volume was determined via magnetic resonance imaging (MRI) prior to injection and on day 84 post-injection. Treatment efficacy was evaluated via the Physician’s Global Assessment (PGS) questionnaire on days 28, 56, and 84 after injection, as described above. Patient satisfaction was assessed using the FACE-Q questionnaire prior to injection and on days 28, 56, and 84 after injection, as described above.

submental fat [3] = experiment: Phase 2a study: submental fat volume by MRI; settings: human subjects, day 84 vs prior to injection
Method: 28 patients with submental skin fold thickness greater than 1.5 cm as measured with calipers were divided into two cohorts, Cohort 1 (12 patients) and Cohort 2 (16 subjects). In Cohort 1, 8 subjects were injected with a 50 mg per mL solution of 5-(3,6-dibromo-9H-carbazol-9-yl)-N,N,N-trimethylpentan-1-aminium chloride (Compound 1A) in a vehicle comprising water, propylene glycol, and a surfactant, and 4 patients were injected with a placebo solution comprising vehicle only. In Cohort 2, 6 patients were dosed with a placebo solution comprising vehicle only, and 10 patients were injected with a 50 mg per mL solution of 5-(3,6-dibromo-9H-carbazol-9-yl)-N,N,N-trimethylpentan-1-aminium chloride in a vehicle comprising water, propylene glycol, and a surfactant. […] Cohort 2 subjects began treatment after Cohort 1 was evaluated for safety on day 28 post-injection. Submental fat volume was determined via magnetic resonance imaging (MRI) prior to injection and on day 84 post-injection. Treatment efficacy was evaluated via the Physician’s Global Assessment (PGS) questionnaire on days 28, 56, and 84 after injection, as described above. Patient satisfaction was assessed using the FACE-Q questionnaire prior to injection and on days 28, 56, and 84 after injection, as described above.

[4] = Phase 2a study: safety and tolerability (adverse events, vital signs); settings: human subjects
Method: 28 patients with submental skin fold thickness greater than 1.5 cm as measured with calipers were divided into two cohorts, Cohort 1 (12 patients) and Cohort 2 (16 subjects). In Cohort 1, 8 subjects were injected with a 50 mg per mL solution of 5-(3,6-dibromo-9H-carbazol-9-yl)-N,N,N-trimethylpentan-1-aminium chloride (Compound 1A) in a vehicle comprising water, propylene glycol, and a surfactant, and 4 patients were injected with a placebo solution comprising vehicle only. In Cohort 2, 6 patients were dosed with a placebo solution comprising vehicle only, and 10 patients were injected with a 50 mg per mL solution of 5-(3,6-dibromo-9H-carbazol-9-yl)-N,N,N-trimethylpentan-1-aminium chloride in a vehicle comprising water, propylene glycol, and a surfactant.
The maximum compound dose was 120 mg per patient (a total of 48 injections at 2.5 mg per injection) for Cohort 1 and 240 mg per patient (a total of 48 injections at 5 mg per injection) for Cohort 2. Injections were given at a 90° angle to the injected skin surface and spaced of a submental area-shaped grid in which the distance between rows was 1 cm and the distance between columns was also 1 cm. Cohort 2 subjects began treatment after Cohort 1 was evaluated for safety on day 28 post-injection.

With C[N+](C)(C)CCCCCn1c2ccc(Br)cc2c2cc(Br)ccc21.[Cl-] [Compound 1A, 5-(3,6-dibromo-9H-carbazol-9-yl)-N,N,N-trimethylpentan-1-aminium chloride] the “Fold increase in mean subject satisfaction score (Face-Q)” value (submental fat [1]; high dose) was 2.5 fold, the “Fold increase in mean subject satisfaction score (Face-Q)” value (submental fat [1]; low dose) was 2.4 fold and the “Subjects demonstrating improvement in submental fat (Physician Impression scale)” value (submental fat [2]) was “all but one of the 18”. The “Submental fat volume reduction (MRI)” value (submental fat [3]; high dose (Cohort 2, 5 mg/injection, up to 240 mg), P<0.05 vs the placebo group) was -22.2% ± 14.9, the “Submental fat volume reduction (MRI)” value (submental fat [3]; low dose (Cohort 1, 2.5 mg/injection, up to 120 mg), P=0.55 vs the placebo group, NS) was -10.6% ± 14.5 and the “Severity of edema and induration compared to placebo” value ([4]; high dose group, particularly in the first 24 hours following injection) was “higher severity”. For the same compound, the Safety and tolerability ([4]; low and high doses (averaged doses of 80 mg and 158.5 mg), no clinically significant changes in vital signs) was “safe and well tolerated”.
